From patent US20190336598A1, “METHODS FOR MODULATING INFLAMMASOME ACTIVITY AND INFLAMMATION IN THE LUNG” (UNIVERSITY OF MIAMI, priority 2016, published 2019)
“Also recorded” adds a separate entry of the source.

Key:
Format in all cases: in vivo, C57-BL6 mice
[1] = system: inflammasome proteins (caspase-1, ASC, IL-1β, AIM2, HMGB1) in lungs; assay: Immunoblot of inflammasome proteins in lungs after adoptive transfer of EV from TBI mice and treatment; conditions: vs untreated positive control animals; Enoxaparin 3 mg/kg, IC 100 5 mg/kg; N=4 per group
[2] = system: lungs of animals delivered EV from injured mice (ALI); assay: Histology (H&E) and acute lung injury scoring after adoptive transfer of EV from TBI mice and treatment; conditions: Enoxaparin 3 mg/kg or IC 100 5 mg/kg one hour after EV from TBI mice; for neutrophil infiltration into alveolar and interstitial space (H&E stained lung sections, FIG. 9A-D) / septal thickening (H&E stained lung sections, FIG. 9A-D): lungs 24 hours after injection; for ALI score (FIG. 9E): vs untreated group, score 0 (no injury) to 1 (severe injury), p=<0.0001
Method: (§1) Serum-derived EV from C57BL-6 TBI and sham mice were injected into naïve C57BL-6 mice through the jugular vein at a dose of 1.0×10^10 particles per gram/body weight^48. Particle count was measured by Nanosight Tracking analysis and samples were diluted accordingly. Prior to surgery animals were anesthetized with ketamine and […]. A 1-2 cm incision was made between the jaw and the clavicle. The jugular vein was elevated and tied, followed by catheter placement. Serum-derived EV were transferred and lung and brain tissues were collected 24 hours after injection for analysis (n=5).
(§2) Serum-derived EV from TBI mice were injected into naïve C57-BL6 mice through a jugular vein injection. One hour later, Enoxaparin (3 mg/kg) (n=4) and Anti-ASC (5 mg/kg) (n=4) were administered to recipient animals. The following groups were used: 1) the naïve group received no treatment, 2) the sham saline group was used as a negative control and underwent jugular vein injection of only saline, 3) the untreated group received EV from TBI mice without any treatment and was used as a positive control, 4) the ENOX group received EV from TBI mice and Enoxaparin, and 5) the Anti-ASC group received EV from TBI mice and Anti-ASC. The order of treatment was randomized. Lung and brain tissues were collected 24 hours after injection for analysis. It should be noted that the anti-ASC antibody used in the treatment experiments was a humanized monoclonal antibody against ASC and recognizes murine, human and swine ASC.
Lung tissue sections were stained by a standard hematoxylin and eosin method for histology, morphometry and ALI scoring. Lung sections were scored by a blinded pathologist using the Lung Injury Scoring System from the American Thoracic Society Workshop Report (17). Twenty random high power fields were chosen for scoring. Criteria for ALI scoring was based on number of neutrophils in the alveolar space, interstitial space, hyaline membranes, proteinaceous debris filling the airspaces and alveolar septal thickening. Based on these criteria a score between 0 (no injury) and 1 (severe injury) was given.

[3] = system: inflammasome proteins (caspase-1, ASC, IL-1β, AIM2, HMGB1) in lungs; assay: Immunoblot of inflammasome proteins in lungs after adoptive transfer of EV from TBI mice and treatment; conditions: vs untreated positive control; Enoxaparin 3 mg/kg or IC 100 5 mg/kg one hour after EV from TBI mice; lungs collected 24 hours after injection; p=<0.0001
Method: Lung and brain tissue samples were snap frozen in liquid nitrogen and stored in −80° C. 2-mm sections of right lower lung and right cortical tissue were homogenized in extraction buffer containing protease and phosphatase inhibitor cocktail (Sigma, St Louis, Mo., USA) and resolved in 4-20% Tris-TGX Criterion precasted gels (Bio-Rad, Hercules, Calif., USA) as described in de Rivero Vaccari et al. 2015 (13) using antibodies to caspase-1 (Novus Biologicals), ASC (Santa Cruz), IL-1 β (Cell Signaling), IL-18 (Abcam) AIM2 (Santa Cruz) and HMGB1 (Millipore). Quantification of band density was performed using Image Lab and all data were normalized to β-actin.
as §1, §2

Molecule: Enoxaparin
- IL-1β in lungs (FIG. 8D) [1]: reduced
- neutrophil infiltration into alveolar and interstitial space (H&E stained lung sections, FIG. 9A-D) [2]: significantly less
- septal thickening (H&E stained lung sections, FIG. 9A-D) [2]: no signs
- ALI score (FIG. 9E) [2]: significantly lower; also recorded: significantly decreased
- AIM2 in lungs (FIG. 8E) [3]: significantly reduced
- ASC in lungs (FIG. 8C) [3]: significantly reduced
- Caspase-1 in lungs (FIG. 8B) [3]: significantly reduced
- HMGB1 in lungs (FIG. 8F) [3]: significantly reduced
- IL-1β in lungs (FIG. 8D) [3]: significantly reduced

B1: IC 100: humanized monoclonal antibody against ASC; recognizes murine, human and swine ASC (antibody, V domains shown)
VH: QVTLKESGPALVKPTQTLTLTCSFSGFSLSTSGMGVSWIRQPAGKGLEWLAHIYWDDDKRYNPSLKSRLTISKDSSKNQVVLTMTNMDPVDTATYSCARSTPIVANAMDYWGQGTLVTVSS
VL: DIVMTQSPDSLAVSLGERATINCKASQSVDYDGDSYMNWYQQKPGQPPKLLIYAASNLESGIPARFSGSGSGTDFTLTISSLQPEDVATYYCQQSNEDPYTFGQGTKLEIK
- IL-1β in lungs (FIG. 8D) [1]: reduced
- neutrophil infiltration into alveolar and interstitial space (H&E stained lung sections, FIG. 9A-D) [2]: significantly less
- septal thickening (H&E stained lung sections, FIG. 9A-D) [2]: no signs
- ALI score (FIG. 9E) [2]: significantly lower; also recorded: significantly decreased
- AIM2 in lungs (FIG. 8E) [3]: significantly reduced
- ASC in lungs (FIG. 8C) [3]: significantly reduced
- Caspase-1 in lungs (FIG. 8B) [3]: significantly reduced
- HMGB1 in lungs (FIG. 8F) [3]: significantly reduced
- IL-1β in lungs (FIG. 8D) [3]: significantly reduced
